Measured values reported in patent publication US20060040390A1, “Device, method, system, and program for intelligent in vivo cell-level chemical or genetic material delivery” (priority 2004, published 2006).

Columns and labels:
[1] = test system: KB-V cells; test: cells
[2] = test system: mouse fibroblasts stably transfected with IGF-R; conditions: 72 h
[3] = test system: neuroblastoma (B104 cells) xenografted in nude mice; test: In vivo tumor study, B104 neuroblastoma xenografted in nude mice
Excerpt: Nude mice (seven weeks old, female) are used to test the effect of paclitaxel in tumor progression. […] Tumor growth is monitored daily. Mice are then randomized and treatments are initiated. […] Measurements of tumor volume are taken using calipers, every day post treatment for a total of 25 days.

[4] = test system: B104 cells
Method: The B104 cells are a rat neuroblastoma line that expresses p75 receptors (p75^+). The 4-3.6 cells are B104 cells stably transfected with human TrkA cDNA (p75^+, TrkA^+).
Therefore, tested is whether a single bolus of paclitaxel is an effective cytotoxic agent. Cells ae exposed to the indicated concentration of paclitaxel for 30 minutes at 4° C. Then, cells are plated in a 96-well plate (Falcon); this group represents treatment with paclitaxel present in a constant manner. The remaining cells are washed free of excess paclitaxel prior to plating; this group represents a single exposure to paclitaxel. […] Optical density readings of MTT are done in an EIA Plate Reader model 2550 (Bio-Rad) at 595 nm.
Paclitaxel is lipophilic and readily penetrates the cell membrane. […] Tested is whether a single short term exposure to paclitaxel can be effective in killing neuroblastoma B104 cells. These assays are done at 4°
The mAbs purpose is purely for target binding.

[5] = test system: cells that do not express p75; test: Selectivity of paclitaxel-MC192 on cells that do not express p75; assay type: cell-based
[6] = test system: 4-3.6 cells; test: In vitro survival assay with caspase inhibitor, serum-withdrawal model, 4-3.6 cells; assay type: cell-based, rat; conditions: ~48 hrs
Excerpt: (§1) 4-3.6 cells are placed in serum free media (SFM, PFHM-II, GIBCO, Toronto), where they undergo apoptosis (serum-withdrawal model).

[7] = test system: B104 cells; test: In vitro survival assay with caspase inhibitor, B104 cells that do not express TrkA; assay type: cell-based, rat; conditions: B104 cells (no TrkA), serum free media
Method: as §1
Cells are then cultured for ~48 hrs. Cell growth/survival is calculated relative to 5% serum (standardized to 100%). Addition of serum protects cells in SFM from death.
Cell survival is measured by quantitative tetrazolium salt reagent (MTT, Sigma) and optical density (OD) readings as described [Maliartchouk, 1997]. n=3-6.
Testing 4-3.6 Cell Survival (MTT, % of serum control). Serum free media 0.+−. 4 5%. Serum 100.+−. 2 20 nM zVAD−2.+−. 3 VAD-5C3 conjugate (20 nM VAD equivalent, 1 nM 41.+−. 1 5C3). […] Typicaly, […] mAb 5C3 alone (unconjugated) does protect 4-3.6 cells in SFM to ~10%, which is a much lower degree of protection than equimolar doses of the VAD-5C3 conjugate.

COc1cccc2c1C(=O)c1c(O)c3c(c(O)c1C2=O)C[C@@](O)(C(=O)CO)C[C@@H]3O[C@H]1C[C@H](N)[C@H](O)[C@H](C)O1 [Doxorubicin]
cytotoxicity on multidrug resistant KB-V cells compared to sensitive KB cells [1]: inactive on KB-V cells unless Verapamil was added
IC50 ([1]; Homo sapiens, KBV, 72 h, read-out: IC50 ± SEM): > 320 nM
cytotoxicity with or without excess antibody [2]: the same cytotoxicity whether excess of mig or α-IR3 is present or not

CC(=O)O[C@H]1C(=O)[C@@]2(C)[C@H]([C@H](OC(=O)c3ccccc3)[C@]3(O)C[C@H](OC(=O)[C@H](O)[C@@H](NC(=O)c4ccccc4)c4ccccc4)C(C)=C1C3(C)C)[C@]1(OC(C)=O)CO[C@@H]1C[C@@H]2O [paclitaxel]
antitumor activity, tumor growth ([3]; nude mice, five IP injections every two days, versus control (HBSS)): not able to do so
efficacy of free drug at the conjugate's effective dose ([3]; ~3.5 nM): not effective at this dose
cytotoxic effect, single exposure versus constant presence [4]: generally the same whether the drug is present in the culture throughout or after a single exposure
cytotoxicity, constant versus single dose ([4]; rat, 48 h): the same after 48 hours whether a constant or a single dose is given
cytotoxicity on cells that do not express p75 [5]: dose-dependent cytotoxicity

benzoic acid-Valine-Alanine-Aspartic acid-O-methyl-fluoromethyl-Iketone peptide [zVAD]
protection of cells in SFM [6]: does not protect cells
protection of B104 cells from death [7]: Neither 20 nM zVAD nor VAD-5c3 conjugate afford protection
